According to ChEMBL document CHEMBL3885881, “DrugMatrix”:

Species on record: Rattus norvegicus
Assay: DrugMatrix - Regimen: Daily Repeat
Type: toxicity, organism-based, Sprague-Dawley
Design: regimen Daily Repeat, gender Male, age 6-8 weeks
Details: in vivo, po, route oral GAVAGE, […]; for ABSOLUTE BASOPHIL / ABSOLUTE EOSINOPHIL / ABSOLUTE LYMPHOCYTE / ABSOLUTE MONOCYTE / ABSOLUTE SEGMENTED NEUTROPHIL / BASOPHIL / EOSINOPHIL / ERYTHROCYTE COUNT / HEMATOCRIT / HEMOGLOBIN / LEUKOCYTE COUNT / LYMPHOCYTE / MEAN CORPUSCULAR HEMOGLOBIN / MEAN CORPUSCULAR HEMOGLOBIN CONCENTRATION / MEAN CORPUSCULAR VOLUME / MONOCYTE / NEUTROPHIL / NUCLEATED RED BLOOD CELLS / PLATELET COUNT: tissue Blood; for ALANINE AMINOTRANSFERASE / ALKALINE PHOSPHATASE / ASPARTATE AMINOTRANSFERASE / BLOOD UREA NITROGEN / CARBON DIOXIDE / CHLORIDE / CHOLESTEROL / CREATINE PHOSPHOKINASE / CREATININE / GLUCOSE / LACTATE DEHYDROGENASE / LIPASE / PHOSPHORUS / POTASSIUM / SODIUM / TOTAL BILIRUBIN / TOTAL PROTEIN / URIC ACID: tissue Plasma
[1] = 0 mg/kg, 72 h, dose level Control, time 3 day
[2] = 0 mg/kg, dose level Control, time 7 day
[3] = 100 mg/kg, 72 h, dose level Low, time 3 day

## Cc1ccc(C)c(OCCCC(C)(C)C(=O)O)c1 [GEMFIBROZIL]
[1]
  ABSOLUTE BASOPHIL: 0 CELLS/uL
  ABSOLUTE EOSINOPHIL: 37.33 CELLS/uL
  ABSOLUTE LYMPHOCYTE: 6295.33 CELLS/uL
  ABSOLUTE MONOCYTE: 122.17 CELLS/uL
  ABSOLUTE SEGMENTED NEUTROPHIL: 861.83 CELLS/uL
  BASOPHIL: 0%
  EOSINOPHIL: 0.5%
  ERYTHROCYTE COUNT: 5.2 x10E6/uL
  HEMATOCRIT: 32.58%
  HEMOGLOBIN: 12.95 G/DL
  LEUKOCYTE COUNT: 7.32 x10E3/uL
  LYMPHOCYTE: 86%
  MEAN CORPUSCULAR HEMOGLOBIN: 24.93 pg
  MEAN CORPUSCULAR HEMOGLOBIN CONCENTRATION: 39.77 G/DL
  MEAN CORPUSCULAR VOLUME: 62.65 fL
  MONOCYTE: 1.67%
  NEUTROPHIL: 11.83%
  NUCLEATED RED BLOOD CELLS: 0 /100WBC
  PLATELET COUNT: 1029 x10E3/uL
  ALANINE AMINOTRANSFERASE: 63.67 u/L
  ALKALINE PHOSPHATASE: 329.83 u/L
  ASPARTATE AMINOTRANSFERASE: 77.67 u/L
  BLOOD UREA NITROGEN: 18 mg/dL
  CARBON DIOXIDE: 29.67 mmol/L
  CHLORIDE: 102.67 MEQ/L
  CHOLESTEROL: 64.5 mg/dL
  CREATINE PHOSPHOKINASE: 178.67 u/L
  CREATININE: 0.18 mg/dL
  GLUCOSE: 163.83 mg/dL
  LACTATE DEHYDROGENASE: 75.83 u/L
  LIPASE: 10 u/L
  PHOSPHORUS: 8.28 mg/dL
  POTASSIUM: 4.79 MEQ/L
  SODIUM: 142.22 MEQ/L
  TOTAL BILIRUBIN: 0.22 mg/dL
  TOTAL PROTEIN: 5.78 G/DL
  URIC ACID: 0.87 mg/dL
[2]
  ABSOLUTE BASOPHIL: 0 CELLS/uL
  ABSOLUTE EOSINOPHIL: 19 CELLS/uL
  ABSOLUTE LYMPHOCYTE: 7803.5 CELLS/uL
  ABSOLUTE MONOCYTE: 117.83 CELLS/uL
  ABSOLUTE SEGMENTED NEUTROPHIL: 1093 CELLS/uL
  BASOPHIL: 0%
  EOSINOPHIL: 0.17%
  ERYTHROCYTE COUNT: 5.84 x10E6/uL
  HEMATOCRIT: 35.75%
  HEMOGLOBIN: 13.87 G/DL
  LEUKOCYTE COUNT: 9.03 x10E3/uL
  LYMPHOCYTE: 87.17%
  MEAN CORPUSCULAR HEMOGLOBIN: 23.78 pg
  MEAN CORPUSCULAR HEMOGLOBIN CONCENTRATION: 38.8 G/DL
  MEAN CORPUSCULAR VOLUME: 61.25 fL
  MONOCYTE: 1.17%
  NEUTROPHIL: 11.5%
  NUCLEATED RED BLOOD CELLS: 0 /100WBC
  PLATELET COUNT: 1098.67 x10E3/uL
  ALANINE AMINOTRANSFERASE: 66 u/L
  ALKALINE PHOSPHATASE: 291.83 u/L
  ASPARTATE AMINOTRANSFERASE: 80.5 u/L
  BLOOD UREA NITROGEN: 15.67 mg/dL
  CARBON DIOXIDE: 30 mmol/L
  CHLORIDE: 101.67 MEQ/L
  CHOLESTEROL: 69.67 mg/dL
  CREATINE PHOSPHOKINASE: 363.33 u/L
  CREATININE: 0.25 mg/dL
  GLUCOSE: 146.5 mg/dL
  LACTATE DEHYDROGENASE: 219.67 u/L
  LIPASE: 11.33 u/L
  PHOSPHORUS: 10.08 mg/dL
  POTASSIUM: 5.22 MEQ/L
  SODIUM: 144.67 MEQ/L
  TOTAL BILIRUBIN: 0.12 mg/dL
  TOTAL PROTEIN: 6.33 G/DL
  URIC ACID: 0.75 mg/dL
[3]
  ABSOLUTE BASOPHIL: 0 CELLS/uL
  ABSOLUTE EOSINOPHIL: 135 CELLS/uL
  ABSOLUTE LYMPHOCYTE: 14816.33 CELLS/uL
  ABSOLUTE MONOCYTE: 381.17 CELLS/uL
  ABSOLUTE SEGMENTED NEUTROPHIL: 1317.5 CELLS/uL
  BASOPHIL: 0%
  EOSINOPHIL: 0.67%
  ERYTHROCYTE COUNT: 5.65 x10E6/uL
  HEMATOCRIT: 35.43%
  HEMOGLOBIN: 14.12 G/DL
  LEUKOCYTE COUNT: 16.65 x10E3/uL
  LYMPHOCYTE: 89%
  MEAN CORPUSCULAR HEMOGLOBIN: 25.02 pg
  MEAN CORPUSCULAR HEMOGLOBIN CONCENTRATION: 39.85 G/DL
  MEAN CORPUSCULAR VOLUME: 62.8 fL
  MONOCYTE: 2.33%
  NEUTROPHIL: 8%
  NUCLEATED RED BLOOD CELLS: 0 /100WBC
  PLATELET COUNT: 1185.67 x10E3/uL
  ALANINE AMINOTRANSFERASE: 52.83 u/L
  ALKALINE PHOSPHATASE: 423.5 u/L
  ASPARTATE AMINOTRANSFERASE: 76.17 u/L
  BLOOD UREA NITROGEN: 14.67 mg/dL
  CARBON DIOXIDE: 31 mmol/L
  CHLORIDE: 101.5 MEQ/L
  CHOLESTEROL: 48 mg/dL
  CREATINE PHOSPHOKINASE: 304.5 u/L
  CREATININE: 0.2 mg/dL
  GLUCOSE: 145.83 mg/dL
  LACTATE DEHYDROGENASE: 103.67 u/L
  LIPASE: 11.17 u/L
  PHOSPHORUS: 11.08 mg/dL
  POTASSIUM: 6.55 MEQ/L
  SODIUM: 142.47 MEQ/L
  TOTAL BILIRUBIN: 0.2 mg/dL
  TOTAL PROTEIN: 5.9 G/DL
  URIC ACID: 1.3 mg/dL
